From publication PMC9489682, “Synthesis and comparative evaluation of ^177Lu-labeled PEG and non-PEG variant peptides as HER2-targeting probes” (Scientific Reports, 2022)
Where two headings read alike, the source gives them in different places. Residues, ends and D or L forms follow the SMILES beside them. *: point of attachment. DOTA = O=C(O)CN1CCN(CC(=O)O)CCN(CC(=O)*)CCN(CC(=O)O)CC1; PEG5 = NCCOCCOCCOCCOCCOCCC(=O)O

Tests used:
[1] = Water solubility (remarks); type: physicochemical; details: authors' remark on the non-pegylated peptide
HER2 = molecular target: T1, HER2 (Homo sapiens, UniProt P04626); assay: Saturation radioligand binding assay in SKBR3 cells; details: HER2 over expressing SKBR3 cells, 1 × 10^6 cells/well, 4–200 nM radiopeptide, 37 °C, 60 min, non-specific binding with unlabeled DOTA-A9, nonlinear regression, read-out: Binding affinity Kd
T1 construct: endogenous in cells; host or cells: SKBR3 human breast carcinoma cells
T1 sequence (P04626 23-1255): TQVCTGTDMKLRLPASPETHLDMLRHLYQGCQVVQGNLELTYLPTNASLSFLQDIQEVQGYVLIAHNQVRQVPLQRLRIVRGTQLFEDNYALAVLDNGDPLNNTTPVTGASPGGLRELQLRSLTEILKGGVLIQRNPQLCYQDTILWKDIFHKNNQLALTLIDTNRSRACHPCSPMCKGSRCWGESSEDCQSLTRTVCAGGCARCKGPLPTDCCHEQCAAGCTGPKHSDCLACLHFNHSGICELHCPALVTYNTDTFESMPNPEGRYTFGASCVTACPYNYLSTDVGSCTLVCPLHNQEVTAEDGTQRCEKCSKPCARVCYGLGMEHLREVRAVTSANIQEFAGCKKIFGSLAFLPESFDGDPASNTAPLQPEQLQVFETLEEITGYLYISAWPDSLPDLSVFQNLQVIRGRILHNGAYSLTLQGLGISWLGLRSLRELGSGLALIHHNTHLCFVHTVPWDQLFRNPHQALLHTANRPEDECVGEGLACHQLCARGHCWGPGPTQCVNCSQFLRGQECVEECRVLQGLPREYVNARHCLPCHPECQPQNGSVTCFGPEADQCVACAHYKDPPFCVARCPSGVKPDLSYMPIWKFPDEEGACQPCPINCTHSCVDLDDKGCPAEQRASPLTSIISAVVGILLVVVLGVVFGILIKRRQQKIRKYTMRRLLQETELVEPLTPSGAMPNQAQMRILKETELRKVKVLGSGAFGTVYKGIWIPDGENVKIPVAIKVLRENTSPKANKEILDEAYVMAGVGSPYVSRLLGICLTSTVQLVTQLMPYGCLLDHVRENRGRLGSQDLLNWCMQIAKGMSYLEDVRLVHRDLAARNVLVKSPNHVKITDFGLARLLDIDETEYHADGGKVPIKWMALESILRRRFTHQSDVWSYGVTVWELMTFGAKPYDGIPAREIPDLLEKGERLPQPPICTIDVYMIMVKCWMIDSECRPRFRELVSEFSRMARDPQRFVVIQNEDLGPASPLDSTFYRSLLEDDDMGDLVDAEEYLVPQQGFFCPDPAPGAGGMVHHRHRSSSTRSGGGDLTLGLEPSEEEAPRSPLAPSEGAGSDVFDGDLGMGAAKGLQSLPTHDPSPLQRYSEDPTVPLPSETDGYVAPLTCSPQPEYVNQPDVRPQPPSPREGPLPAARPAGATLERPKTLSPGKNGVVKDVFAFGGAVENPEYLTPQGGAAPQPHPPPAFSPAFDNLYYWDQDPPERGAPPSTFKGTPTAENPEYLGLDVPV
Procedure: The binding affinity of [^177Lu]DOTA-A9 and [^177Lu]DOTA-PEG4-A9 was determined by the saturation radioligand binding assay in HER2 over expressing SKBR3 cells. 1 × 10^6 cells/well were seeded in cell culture plates and incubated at 37 °C. Cells were treated with series of increasing concentration of the radiolabeled peptide (4–200 nM) and incubated at 37 °C for 60 min. For obtaining non-specific binding, cells were co-incubated with radiolabeled formulations along with unlabeled DOTA-A9 peptide. On completion of incubation, cells were washed with the ice-cold phosphate buffer saline (PBS). Cells with bound radioactivity were harvested with 1 N NaOH (1 mL) solution (at 37 °C for 3 min) and counted in a gamma counter. Kd value was calculated by the nonlinear regression algorithm (GraphPad Prism version 7.0). The Bmax value (nM) was converted to the number of HER2 receptors per cell.

Human serum stability = type: in vitro ADME; details: human serum 500 μL, pH 7.4, 37 °C, 6 h, 25 µL (3.7 MBq) radiopeptide, acetonitrile precipitation, RP-HPLC radiochromatogram
Procedure: For serum stability studies blood was allowed to clot (1 h) followed by centrifugation (2300×g, 10 min). Measurements were performed by incubation of radiopeptides (25 µL, 3.7 MBq) with human serum (500 μL, pH 7.4) at 37 °C. After 6 h incubation acetonitrile (500 μL) was added to the sample for protein precipitation. Subsequently the sample was centrifuged, supernatant was collected and radiochemical purity was analyzed by RP-HPLC.

[2] = Biodistribution in SKBR3 tumor bearing SCID mice; type: in vivo; details: female, mouse, iv, 0.5 ug, total radioactivity, mean ± SD; for tissue to tissue ratio at 3 h: 3 h p.i.; for tissue to tissue ratio at 3 h / tissue to tissue ratio at 24 h / tissue to tissue ratio at 48 h: i.v. tail vein, 0.5 μg, 3.7 MBq; for tissue to tissue ratio at 24 h: 24 h p.i.; for tissue to tissue ratio at 48 h: 48 h p.i.
Procedure: Biodistribution studies of peptide tracers, [^177Lu]DOTA-A9 and [^177Lu]DOTA-PEG4-A9 were carried out in female SCID mice bearing human breast carcinoma, SKBR3 tumor xenografts. Tumor bearing mice (n = 3) were intravenously injected with peptide tracers (0.5 μg, 150 μL, 3.7 MBq) into the tail vein. Animals were sacrificed and dissected at 3 h, 24 h and 48 h post injection (p.i.). The radioactivity associated with each tissue was counted in a NaI (Tl) flat geometry detector and expressed as percentage injected dose per gram of tissue [% ID/g, mean ± standard deviation, n = 3/radiotracer].
Statistical analysis using the […] two-tailed Student’s t-test was performed to compare uptake values in tumor and major organs between [^177Lu]DOTA-A9 and [^177Lu]DOTA-PEG4-A9 animal groups; values of p < 0.05 were considered statistically significant.

MDA-MB-435 tumors = details: in vivo; cited from earlier work
Procedure: Besides A9 peptide other HER2-targeting peptides have been explored and investigated. […] However, the tumor uptake reduced to 0.10 ± 0.02% ID/g at 24 h p.i. which is much lower than the values of presently studied radiopeptides. […] Tumor-to muscle ra ...

U-87 MG tumors = details: in vivo; cited from earlier work
Procedure: Several Tc-99m-labeled peptides targeting HER2 receptors have also been studied. The high uptake of [^99mTc]HYNIC-(Ser)3-LTVPWY in U-87 MG tumors (2.08 ± 0.07% ID/g) at 1 h p.i. dropped to 0.04 ± 0.03% ID/g at 4 h p.i. […] Tumor-to-blood, tumor-to-muscle and tumor-to-kidney ratios reported were much lower for [^99mTc]CGGG-LTVSPWY and [^99mTc]CSSS-LTVSPWY compared to the current radiopeptides.

[3] = tumor / blood, n = 3, read-out: Tumor-to-blood ratio
[4] = tumor / muscle, n = 3, read-out: Tumor-to-muscle ratio

**Q.** With CC(C)[C@H](NC(=O)[C@H](C)NC(=O)[C@@H](NC(=O)[C@H](CC(N)=O)NC(=O)[C@@H](NC(=O)[C@H](CC(=O)O)NC(=O)[C@H](CCC(N)=O)NC(=O)CN1CCN(CC(=O)O)CCN(CC(=O)O)CCN(CC(=O)O)CC1)C(C)C)[C@@H](C)O)C(=O)N[C@@H](C)C(=O)N[C@@H](Cc1c[nH]c2ccccc12)C(N)=O ({DOTA}-QDVNTAVAW-NH2) as the compound, how does the intact radiopeptide after 6 h in human serum read?
**A.** > 95%

**Q.** For CC(C)[C@H](NC(=O)[C@H](C)NC(=O)[C@@H](NC(=O)[C@H](CC(N)=O)NC(=O)[C@@H](NC(=O)[C@H](CC(=O)O)NC(=O)[C@H](CCC(N)=O)NC(=O)CN1CCN(CC(=O)O)CCN(CC(=O)O)CCN(CC(=O)O)CC1)C(C)C)[C@@H](C)O)C(=O)N[C@@H](C)C(=O)N[C@@H](Cc1c[nH]c2ccccc12)C(N)=O [DOTA-A9] ({DOTA}-QDVNTAVAW-NH2), which Solubility [1] is on record?
**A.** no solubility issues

**Q.** Which Kd (HER2) does the source give for CC(C)[C@H](NC(=O)[C@H](C)NC(=O)[C@@H](NC(=O)[C@H](CC(N)=O)NC(=O)[C@@H](NC(=O)[C@H](CC(=O)O)NC(=O)[C@H](CCC(N)=O)NC(=O)CN1CCN(CC(=O)O)CCN(CC(=O)O)CCN(CC(=O)O)CC1)C(C)C)[C@@H](C)O)C(=O)N[C@@H](C)C(=O)N[C@@H](Cc1c[nH]c2ccccc12)C(N)=O [[^177Lu]DOTA-A9, metal not drawn] ({DOTA}-QDVNTAVAW-NH2) here?
**A.** 48.4 ± 1.37 nM

**Q.** What about the “Degradation on incubation with human serum (radio-HPLC)” value (Human serum stability) of the same compound?
**A.** no degradation

**Q.** And the tissue to tissue ratio at 3 h [2, 3]?
**A.** 3.4 ± 0.49

**Q.** What about the tissue to tissue ratio at 24 h [2, 3] of the same compound?
**A.** 7.42 ± 1.11

**Q.** And the tissue to tissue ratio at 3 h [2, 4]?
**A.** 8.42 ± 0.04

**Q.** And the tissue to tissue ratio at 24 h [2, 4]?
**A.** 8.09 ± 2.21

**Q.** What about the tissue to tissue ratio at 48 h [2, 4] of the same compound?
**A.** 10 ± 1.57

**Q.** With CC(C)[C@H](NC(=O)[C@H](C)NC(=O)[C@@H](NC(=O)[C@H](CC(N)=O)NC(=O)[C@@H](NC(=O)[C@H](CC(=O)O)NC(=O)[C@H](CCC(N)=O)NC(=O)CCOCCOCCOCCOCCOCCNC(=O)CN1CCN(CC(=O)O)CCN(CC(=O)O)CCN(CC(=O)O)CC1)C(C)C)[C@@H](C)O)C(=O)N[C@@H](C)C(=O)N[C@@H](Cc1c[nH]c2ccccc12)C(N)=O [[^177Lu]DOTA-PEG4-A9, metal not drawn] ({DOTA-PEG5}-QDVNTAVAW-NH2) as the compound, how does the Kd (HER2) read?
**A.** 55.7 ± 12.3 nM

**Q.** What about the “Degradation on incubation with human serum (radio-HPLC)” value (Human serum stability) of the same compound?
**A.** no change in radiochromatogram

**Q.** What about the tissue uptake at 3 h ([2]; SKBR3 tumor, maximum observed at 3 h p.i., n = 3) of the same compound?
**A.** 2.04 ± 0.22 %ID/g

**Q.** And the tissue to tissue ratio at 3 h [2, 3]?
**A.** 3.85 ± 0.02

**Q.** And the tissue to tissue ratio at 24 h [2, 3]?
**A.** 8.87 ± 1.51

**Q.** What about the tissue to tissue ratio at 48 h [2, 3] of the same compound?
**A.** 15 ± 1.42

**Q.** And the tissue to tissue ratio at 3 h [2, 4]?
**A.** 15.7 ± 2.06

**Q.** What about the tissue to tissue ratio at 24 h [2, 4] of the same compound?
**A.** 13.3 ± 0.03

**Q.** What about the tissue to tissue ratio at 48 h [2, 4] of the same compound?
**A.** 30 ± 2.83

**Q.** What about the intact radiopeptide after 6 h in human serum of the same compound?
**A.** > 95%

**Q.** For “DOTA(GSG)-KCCYSL [[^111In]DOTA(GSG)-KCCYSL, In-111 labeled HER2-targeting KCCYSL peptide]”, which Maximum tumor uptake (MDA-MB-435 tumors) is on record?
**A.** 2.12 ± 0.32 % ID/g

**Q.** And the Tumor-to-blood ratio (MDA-MB-435 tumors)?
**A.** 10:1

**Q.** And the Tumor-to-muscle ratio (MDA-MB-435 tumors)?
**A.** 0.5:1

**Q.** What does the source list for “HYNIC-(Ser)3-LTVPWY [[^99mTc]HYNIC-(Ser)3-LTVPWY, Tc-99m-labeled peptide targeting HER2 receptors]”?
**A.** Tumor-to-blood ratio (U-87 MG tumors): 3.39; Tumor-to-kidney ratio (U-87 MG tumors): 0.24; Tumor-to-muscle ratio (U-87 MG tumors): 3.98
